From article PMC6278366, “Synthesis and Evaluation of Anticancer Activities of Novel C-28 Guanidine-Functionalized Triterpene Acid Derivatives” (Molecules, 2018)
Structures can show the parent of a compound that is named as a salt.

Experiments:
[1] = tested on: Jurkat (T-lymphoblastic leukemia) cells; assay: cells; assay type: cell-based; settings: Homo sapiens, Jurkat, mean ± SE, at least three experiments in duplicate; viable cells; read-out: IC50 Jurkat
Outline: (§1)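 Suspension lines in RPMI 1640 with 10% FBS at 37 °C, 5% CO2, treated with compounds at 1, 5, 10, 15, 30 and 60 μM. Live/dead status by 7-AAD staining (15 min, room temperature, dark) read on flow cytometer, 488 nm excitation, 675/30 nm emission.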

[2] = tested on: K562 (chronic myeloid leukemia) cells; assay: Cytotoxicity assay (7-AAD viability, flow cytometry), K562; assay type: cell-based, human; settings: Homo sapiens, K562, mean ± SE, at least three experiments in duplicate; viable cells; read-out: IC50 K562
Outline: as §1

[3] = tested on: U937 (histiocytic lymphoma) cells; assay: Cytotoxicity assay (7-AAD viability, flow cytometry), U937; assay type: cell-based, human; settings: Homo sapiens, U-937, mean ± SE, at least three experiments in duplicate; viable cells; read-out: IC50 U937
Outline: as §1

[4] = tested on: HEK293 (embryonic kidney) cells; assay: Cytotoxicity assay (7-AAD viability, flow cytometry), HEK293; assay type: cell-based, human; settings: Homo sapiens, HEK293, mean ± SE, at least three experiments in duplicate; viable cells
Outline: (§2)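 Adherent HeLa, HEK293 and normal human fibroblasts (5 × 10⁴/well, DMEM with 10% FBS, 37 °C, 5% CO2) were treated with compounds at 1, 5, 10, 15, 30 and 60 μM. Viability was read as 7-AAD exclusion by flow cytometry after 15 min staining.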

[5] = tested on: HeLa (cervical cancer) cells; assay: Cytotoxicity assay (7-AAD viability, flow cytometry), HeLa; assay type: cell-based, human; settings: Homo sapiens, HeLa, mean ± SE, at least three experiments in duplicate; viable cells
Outline: as §2

normal human fibroblasts = assay: Cytotoxicity assay (7-AAD viability, flow cytometry), normal fibroblasts; assay type: cell-based; settings: Homo sapiens, Fibroblast, mean ± SE, at least three experiments in duplicate

| SMILES | IC50 [1] [µM] | IC50 [2] [µM] | IC50 [3] [µM] | IC50 [4] [µM] | IC50 [5] [µM] | IC50 (normal human fibroblasts) [µM] |
| --- | --- | --- | --- | --- | --- | --- |
| CC(=O)O[C@H]1CC[C@@]2(C)C(CC[C@]3(C)C2CCC2C4C(C(C)C)CC[C@]4(C(=O)OCC(CO)(CO)NC(=N)N)CC[C@]23C)C1(C)C (stereo partly drawn) [Compound 15c, 3β-[2-Guanidine-3-hydroxy-2-(hydroxymethyl)propyl]-3-O-acetyl-lupane-28-oate hydrochloride] | 3.1 ± 0.41 | 2.3 ± 0.34 | 15 ± 0.23 | 16 ± 0.27 | 14 ± 0.31 | 27 ± 0.14 |
| CC(=O)O[C@H]1CC[C@@]2(C)C(CC[C@]3(C)C2CCC2C4C(C(C)C)CC[C@]4(C(=O)OCC(N)(CO)CO)CC[C@]23C)C1(C)C (stereo partly drawn) [Compound 15, 3β-[2-Amino-3-hydroxy-2-(hydroxymethyl)propyl]-3-O-acetyl-lupane-28-oate] | 3.3 ± 0.11 | 2.1 ± 0.13 | 6.6 ± 0.23 | 17 ± 0.25 | 19 ± 0.49 | 31 ± 0.29 |
